According to patent publication US9676771B2, “Compounds for inhibiting drug-resistant strains of HIV-1 integrase” (priority 2013, dated 2017):
Where two headings read alike, the source gives them in different places.

Assays:
[1] = test system: HIV-1 constructs containing mutant IN N155H; experiment: microbe, parasite or virus in culture; assay type: cell-based; conditions: Human immunodeficiency virus 1, read-out: EC50 (nM, IN Mutants) N155H
Source text: (§1) Single-Round HIV-1 Infectivity Assay.
(§2) Human embryonyl kidney cell culture cell line 293 was acquired from the American type Culture Collection (ATCC).
(§3) The virus-containing supernatants were then harvested, clarified by low-speed centrifugation, filtrated, and diluted for preparation in infection assays. […] Activity was normalized to infectivity in the absence of target compounds. KaleidaGraph (Synergy Software, Reading, Pa.) was used to perform regression analysis on the data. EC50 values were determined from the fit model.
(§4) pNLNgoMIVR^−ΔEnv.LUC has been described previously (Zhao et al. 2008). The integrase codon reading frame was removed from pNLNgoMIVR^−ΔEnv LUC (between KpnI and SalI sites) and placed between the KpnI and SalI sites of pBluescript II KS+. Using that construct as the wild-type template, we prepared the following HIV-1 Integrase-resistant mutants via the QuikChange II XL (Stratagene, La Jolla, Calif.) site-directed mutagenesis protocol: H51Y, T66I, E92Q, G118R, Y143R, Q148H, Q148K, N155H, R263K, G140S+Q148H, G140A+Q148K, E138K+Q148K, and H51Y+R263K. The following sense with cognate antisense (not shown) oligonucleotides (Integrated DNA Technologies, Coralville, Iowa) were used in the mutagenesis: H51Y, 5′-[…]-3; T66I, 5′-[…]-3′; E92Q, 5′-[…]-3′; G118R, 5′-[…]-3′; E138K, 5′-[…]-3; G140A, 5′-[…]-3; G140S, 5′-[…]-3′; Y143R, 5′-[…]-3′; Q148H, 5′-[…]-3′; Q148K, 5′-[…]-3; N155H, 5′-[…]-3′; R263K 5′-[…]-3′. The double mutation G140S+Q148H was constructed by using the previously generated Q148H mutant and the appropriate oligonucleotide for the 2nd mutation, G140S. The double mutation G140A+Q148K was made by using the Q148K mutant and the appropriate oligonucleotide for the 2nd mutation, G140A. The double mutation E138K+Q148K was made by using the Q148K mutant and the appropriate oligonucleotide for the 2nd mutation, E138K. The double mutation H51Y+R263K was constructed by using the previously generated H51Y mutant and the appropriate oligonucleotides for the 2nd mutation, R263K. The DNA sequence of each construct was verified independently by DNA sequence determination. […] These DNA sequences were additionally checked independently by DNA sequence determination.

[2] = test system: HIV-1 constructs containing mutant IN Y143R; experiment: microbe, parasite or virus in culture; assay type: cell-based; conditions: Human immunodeficiency virus 1, read-out: EC50 (nM, IN Mutants) Y143R
Source text: as §1, §2, §3, §4

[3] = test system: HIV-1 constructs containing wild-type IN; experiment: microbe, parasite or virus in culture; assay type: cell-based; conditions: for EC50: Human immunodeficiency virus 1, WT IN, read-out: EC50 (nM, WT); for SI / Si (selectivity index): ratio of CC50 to EC50
Source text: as §1, §2, §3

HIV-1 integrase = HIV-1 integrase (Human immunodeficiency virus type 1 group M subtype B, UniProt P12497); experiment: biochemical; assay type: biochemical
Method: In Vitro Integrase Assay.
Integrase reactions were carried out by adding drugs or an equivalent volume of 100% dimethyl sulfoxide (DMSO; used as the drug solvent) to a mixture of 20 nM DNA and 400 nM integrase in 50 mM morpholinepropanesulfonic acid (pH 7.2), 7.5 mM MgCl2, and 14 mM 2-mercaptoethanol. Reactions were performed at 37° C. for 2 h and quenched by the addition of an equal volume of loading buffer (formamide containing 1% sodium dodecyl sulfate, 0.25% bromophenol blue, and xylene cyanol). […] Dried gels were visualized using a Typhoon 8600 (GE Healthcare, Piscataway, N.J.). Densitometric analyses were performed using ImageQuant 5.1 software from GE Healthcare.

in vitro = assay type: cell-based, human; conditions: human, 50% reduction in the level of ATP in HOS cells
Method: Cellular Cytotoxicity Assay.
On the day of the screen, cells were treated with compounds at the appropriate concentration range chosen and incubated at 37° C. for 48 hrs. Cytotoxicity was measured by monitoring ATP levels via a luciferase reporter assay. Cells were lysed in 50 μL cell lysis buffer (PerkinElmer, Waltham, Mass.) and shaken at 700 rpm at room temperature for 5 mins After the addition of 50 μL of ATPlite buffer (PerkinElmer) directly onto the lysed cells and shaking at 700 rpm at room temperature for 5 mins, ATP levels were monitored by measuring luciferase activity using a microplate reader. Activity was normalized to cytotoxicity in the absence of target compounds. KaleidaGraph (Synergy Software, Reading, Pa.) was used to perform regression analysis on the data. CC50 values were determined from the fit model.

[4] = Table 4, 3′-processing, read-out: IC50 (3^+-Processing)
[5] = Table 4, strand transfer, read-out: IC50 (Strand Transfer)
[6] = read-out: IC50 (3^+-Processing)
[7] = read-out: IC50 (Strand Transfer)

COC(=O)CNc1c(C(=O)NCc2ccc(F)cc2F)c(=O)n(O)c2nc(OC)ccc12 [XZ407, methyl 2-((3-((2,4-difluorobenzyl)carbamoyl)-1-hydroxy-7-methoxy-2-oxo-1,2-dihydro-1,8-naphthyridin-4-yl)amino)acetate]
EC50 ([1]; Table 5): 31300 ± 320 nM
EC50 ([2]; Table 5): 51.5 ± 12.6 nM
EC50 ([3]; Table 5): 32 ± 13 nM
SI ([3]; Table 5): 366
IC50 (HIV-1 integrase; [4]): 20 ± 2 µM
IC50 (HIV-1 integrase; [5]): 0.042 ± 0.005 µM
CC50 (in vitro; Table 5): 11.7 ± 3.1 µM

O=C(NCc1ccc(F)cc1F)c1c(Nc2ccc3c(c2)Cc2ccccc2-3)c2cccnc2n(O)c1=O [XZ386, 4-((9H-fluoren-2-yl)amino)-N-(2,4-difluorobenzyl)-1-hydroxy-2-oxo-1,2-dihydro-1,8-naphthyridine-3-carboxamide]
EC50 ([2]; Table 3): 448 ± 28.1 nM
EC50 ([3]; Table 3): 171 ± 56.8 nM
Si (selectivity index) ([3]; Table 3): >1,462
IC50 (HIV-1 integrase; [4]): 46 ± 8 µM
IC50 (HIV-1 integrase; [5]): 0.84 ± 0.21 µM
CC50 (in vitro; Table 3): > 250 µM

O=C(NCc1ccc(F)cc1F)c1c(Nc2ccc(-c3ccccc3)cc2)c2cccnc2n(O)c1=O [XZ385, 4-([1,1′-biphenyl]-4-ylamino)-N-(2,4-difluorobenzyl)-1-hydroxy-2-oxo-1,2-dihydro-1,8-naphthyridine-3-carboxamide]
EC50 ([2]; Table 3): 361 ± 84 nM
EC50 ([3]; Table 3): 372 ± 63 nM
Si (selectivity index) ([3]; Table 3): >673
IC50 (HIV-1 integrase; [4]): 52 ± 5 µM
IC50 (HIV-1 integrase; [5]): 0.34 ± 0.08 µM
CC50 (in vitro; Table 3): > 250 µM

CCOC(=O)[C@@H]1CCCN1c1c(C(=O)NCc2ccc(F)cc2F)c(=O)n(O)c2ncccc12 [XZ404, (S)-ethyl 1-(3-((2,4-difluorobenzyl)carbamoyl)-1-hydroxy-2-oxo-1,2-dihydro-1,8-naphthyridin-4-yl)pyrrolidine-2-carboxylate]
EC50 ([2]; Table 3): 1660 ± 920 nM
EC50 ([3]; Table 3): 590 ± 71.8 nM
Si (selectivity index) ([3]; Table 3): 31
IC50 (HIV-1 integrase; [4]): 86 ± 6 µM
IC50 (HIV-1 integrase; [5]): 0.31 ± 0.04 µM
CC50 (in vitro; Table 3): 18.2 ± 7.1 µM

COC(=O)[C@@H](CO)Nc1c(C(=O)NCc2ccc(F)cc2F)c(=O)n(O)c2ncccc12 [XZ399, (R)-methyl 2-((3-((2,4-difluorobenzyl)carbamoyl)-1-hydroxy-2-oxo-1,2-dihydro-1,8-naphthyridin-4-yl)amino)-3-hydroxypropanoate]
EC50 ([3]; Table 3): 14.2 ± 3.71 nM
IC50 (HIV-1 integrase; [6]): 4.4 ± 0.5 µM
IC50 (HIV-1 integrase; [7]): 0.013 µM
CC50 (in vitro; Table 3): > 250 µM

NCc1ccc(-c2ccc(Nc3c(C(=O)NCc4ccc(F)cc4F)c(=O)n(O)c4ncccc34)cc2)cc1 [XZ389, 4-((4′-(aminomethyl)-[1,1′-biphenyl]-4-yl)amino)-N-(2,4-difluorobenzyl)-1-hydroxy-2-oxo-1,2-dihydro-1,8-naphthyridine-3-carboxamide]
EC50 ([3]; Table 3): 411 ± 30 nM
IC50 (HIV-1 integrase; [4]): > 333 µM
IC50 (HIV-1 integrase; [5]): 29 ± 13 µM
CC50 (in vitro; Table 3): 0.414 µM

COC(=O)[C@H](C)Nc1c(C(=O)NCc2ccc(F)cc2F)c(=O)n(O)c2ncccc12 [XZ394, (S)-methyl 2-((3-((2,4-difluorobenzyl)carbamoyl)-1-hydroxy-2-oxo-1,2-dihydro-1,8-naphthyridin-4-yl)amino)propanoat]
EC50 ([3]; Table 3): 4.2 ± 1.6 nM
CC50 (in vitro; Table 3): > 250 µM

COc1ccc2c(O)c(C(=O)NCc3ccc(F)cc3F)c(=O)n(O)c2n1 [XZ405, N-(2,4-difluorobenzyl)-1,4-dihydroxy-7-methoxy-2-oxo-1,2-dihydro-1,8-naphthyridine-3-carboxamide]
EC50 ([2]; Table 5): 215 ± 31 nM
EC50 ([3]; Table 5): 186 ± 23.2 nM
SI ([3]; Table 5): 65
IC50 (HIV-1 integrase; [4]): 32 ± 4 µM
IC50 (HIV-1 integrase; [5]): 0.033 ± 0.005 µM
CC50 (in vitro; Table 5): 12.1 ± 4.6 µM

COC(=O)[C@H](Nc1c(C(=O)NCc2ccc(F)cc2F)c(=O)n(O)c2ncccc12)c1ccccc1 [XZ397, (R)-methyl 2-((3-((2,4-difluorobenzyl)carbamoyl)-1-hydroxy-2-oxo-1,2-dihydro-1,8-naphthyridin-4-yl)amino)-2-phenylacetate]
EC50 ([1]; Table 3): 21.6 ± 3.7 nM
EC50 ([3]; Table 3): 7.4 ± 3.3 nM
CC50 (in vitro; Table 3): > 250 µM

CC(C)Nc1c(C(=O)NCc2ccc(F)cc2F)c(=O)n(O)c2ncccc12 [XZ381, N-(2,4-difluorobenzyl)-1-hydroxy-4-(isopropylamino)-2-oxo-1,2-dihydro-1,8-naphthyridine-3-carboxamide]
EC50 ([3]; Table 3): 7.2 ± 3 nM
IC50 (HIV-1 integrase; [6]): 1.8 ± 0.2 µM
IC50 (HIV-1 integrase; [7]): 0.016 ± 0.004 µM
CC50 (in vitro; Table 3): > 250 µM

N#Cc1ccc(-c2ccc(Nc3c(C(=O)NCc4ccc(F)cc4F)c(=O)n(O)c4ncccc34)cc2)cc1 [XZ388, 4-((4′-cyano-[1,1′-biphenyl]-4-yl)amino)-N-(2,4-difluorobenzyl)-1-hydroxy-2-oxo-1,2-dihydro-1,8-naphthyridine-3-carboxamide]
EC50 ([2]; Table 3): 346 ± 38.3 nM
EC50 ([3]; Table 3): 123 ± 20.7 nM
Si (selectivity index) ([3]; Table 3): >2,033
IC50 (HIV-1 integrase; [4]): 70 ± 7 µM
IC50 (HIV-1 integrase; [5]): 0.13 ± 0.03 µM
CC50 (in vitro; Table 3): > 250 µM

O=C(NCc1ccc(F)cc1F)c1c(NCCc2ccccc2)c2cccnc2n(O)c1=O [XZ382, N-(2,4-difluorobenzyl)-1-hydroxy-2-oxo-4-(phenethylamino)-1,2-dihydro-1,8-naphthyridine-3-carboxamide]
EC50 ([3]; Table 3): 14.1 ± 7.9 nM
IC50 (HIV-1 integrase; [6]): 8 ± 1.5 µM
IC50 (HIV-1 integrase; [7]): 0.05 ± 0.012 µM
CC50 (in vitro; Table 3): > 250 µM

NCCNc1c(C(=O)NCc2ccc(F)cc2F)c(=O)n(O)c2ncccc12 [XZ403, 4-((2-aminoethyl)amino)-N-(2,4-difluorobenzyl)-1-hydroxy-2-oxo-1,2-dihydro-1,8-naphthyridine-3-carboxamide]
EC50 ([3]; Table 3): 34.7 ± 10.5 nM
IC50 (HIV-1 integrase; [6]): 4.5 ± 0.2 µM
IC50 (HIV-1 integrase; [7]): 0.039 ± 0.006 µM
CC50 (in vitro; Table 3): 9.6 ± 3.7 µM

CNc1c(C(=O)NCc2ccc(F)cc2F)c(=O)n(O)c2ncccc12 [XZ371, N-(2,4-difluorobenzyl)-1-hydroxy-4-(methylamino)-2-oxo-1,2-dihydro-1,8-naphthyridine-3-carboxamide]
EC50 ([3]; Table 3): 3.1 ± 0.6 nM
IC50 (HIV-1 integrase; [6]): 3.7 ± 0.4 µM
IC50 (HIV-1 integrase; [7]): 0.027 ± 0.004 µM
CC50 (in vitro; Table 3): > 250 µM

COC(=O)[C@H](CO)Nc1c(C(=O)NCc2ccc(F)cc2F)c(=O)n(O)c2ncccc12 [XZ398, (S)-methyl 2-((3-((2,4-difluorobenzyl)carbamoyl)-1-hydroxy-2-oxo-1,2-dihydro-1,8-naphthyridin-4-yl)amino)-3-hydroxypropanoate]
EC50 ([3]; Table 3): 9.7 ± 3 nM
IC50 (HIV-1 integrase; [6]): 5.8 ± 0.5 µM
IC50 (HIV-1 integrase; [7]): 0.0084 ± 0.0032 µM
CC50 (in vitro; Table 3): > 250 µM

COC(=O)[C@@H](Nc1c(C(=O)NCc2ccc(F)cc2F)c(=O)n(O)c2ncccc12)c1ccccc1 [XZ396, (S)-methyl 2-((3-((2,4-difluorobenzyl)carbamoyl)-1-hydroxy-2-oxo-1,2-dihydro-1,8-naphthyridin-4-yl)amino)-2-phenylacetate]
CC50 (in vitro; Table 3): > 250 µM

CCCCCNc1c(C(=O)NCc2ccc(F)cc2F)c(=O)n(O)c2ncccc12 [XZ380, N-(2,4-difluorobenzyl)-1-hydroxy-2-oxo-4-(pentylamino)-1,2-dihydro-1,8-naphthyridine-3-carboxamide]
EC50 ([3]; Table 3): 7.4 ± 1.4 nM
IC50 (HIV-1 integrase; [6]): 8.2 ± 1.6 µM
IC50 (HIV-1 integrase; [7]): 0.024 ± 0.009 µM
CC50 (in vitro; Table 3): 94.2 ± 24.4 µM
